Peptide text beside a SMILES is read from it.
SMILES	logP
CC(=O)N(C)c1ccccc1	1.12
COc1cc(Cl)c(Nc2ccccc2CC(=O)O)c(Cl)c1	4.44
CNc1nc(C)nc2c1ncn2[C@@H]1O[C@H](CO)C[C@@H]1F	0.64
CCCCOP(=O)(OCCCC)Oc1ccccc1	4.27
O=c1n[n+]([O-])ccn1C1OC(CO)C(O)C1O (stereo unspecified)	-2.43
c1cscn1	0.44
COP(=S)(OC)SCN1C(=O)c2ccccc2C1=O	2.78
CNc1nc(-c2ccccc2)c2ccccc2n1	3.58
O=[N+]([O-])c1nccn1CC(F)(F)CO	0.04
CCOC(=O)n1cnc(CC(NC(=O)C2CCC(=O)N2)C(=O)N2CCCC2C(N)=O)c1 (stereo unspecified)	-1.3
NC(=O)C(Cc1ccccc1)NC(=O)C(N)Cc1ccccc1 (stereo unspecified)	1.13
NCCCc1ccccc1	1.83
CN(C)C=C[N+](=O)[O-]	-0.8
CC1CC2OC(=O)C3(C)C2C(OC3(C)O)C2(C)C(=O)C=CC12 (stereo unspecified)	0.3
CC(=O)ONc1ccnc2ccccc12	0.97
Cc1ccc(NC=O)cc1	1.61
Cc1cccc(N(C)C)c1	2.8
COc1ccc2cc(C(C)C(=O)OCC(=O)N(C)CCO)ccc2c1 (stereo unspecified)	2.01
CC(C)Cc1cc(C(=O)NN)ccn1	1.02
O=[N+]([O-])c1ccc(Cl)c(Cl)c1	3.12
CC1=C(C(=O)Nc2ccccc2)SCCO1	2.14

SMILES	logP
CCC(C)C(NC(C)=O)C(=O)NC(Cc1ccccc1)C(=O)NC(C)C(N)=O (stereo not drawn) (Ac-Ile-Phe-Ala-NH2; configuration not given here)	0.52
OCCCCc1ccccc1	2.35
CN(C(N)=S)c1ccccc1	0.85
Cc1cc2nccnc2cc1C	2.29
C1COCO1	-0.37
CCCC(O)CCC	2.22
O=c1[nH]cc(Br)c(=O)[nH]1	-0.21
O=C(O)Cc1ccc(Cl)cc1	2.12
NC(=O)C(=Cc1cccc(F)c1)C(N)=O	0.1
NCCCN	-1.43
O=C(O)Cc1cccc([N+](=O)[O-])c1	1.45
O=C(O)COc1ccccc1Cl	1.86
O=c1c2ccccc2oc2ccccc12	3.39
CCc1ccc(C(=O)OCCN(C)C)cc1	3.15
CCC1(CC)C(=O)NC(=O)NC1=O	0.65
O=C(O)c1cc(Br)ccc1O	3.23
COc1cccc(C(N)=O)c1	0.85
C=CCNCC=C	1.11
O=c1c2ccccc2sc2ccccc12	3.99
CN(C)CC(O)c1ccccc1 (stereo unspecified)	1.54
COc1ccc2cccnc2c1	2.37

SMILES	logP
Oc1ccccc1Br	2.35
CC(=O)CCC(C)=O	-0.27
OC1(c2ccc(Cl)cc2)CCN(CCCC2(c3ccc(F)cc3)OCCO2)CC1	3.84
CCN(CC)CC	1.45
CC(C)NCC(O)COc1ccccc1 (stereo unspecified)	1.72
CC(C)(c1ccc(O)cc1)c1ccc(O)cc1	3.32
O=C(O)Cc1ccccc1	1.41
O=C1C=CCO1	-0.6
N#Cc1cccc(N)c1	1.07
CCCCCCCOc1cccc(NC(=O)OCCN2CCCCC2)c1	5.53
COc1cccc(COC(C)=O)c1	2.02
Clc1ccccn1	1.22
NC(=O)CCCc1ccccc1	1.41
Fc1cccc2cccnc12	2.19
C#CCn1cncc1[N+](=O)[O-]	0.52
CNC(=O)Oc1ccc(C)cc1	1.66
CC(C)CCC(=O)c1ccoc1	2.76
COc1ccc(C(N)=O)cc1	0.86
Nc1nc(N)nc(-c2ccccc2I)n1	1.41
NC(=O)CI	-0.19
Clc1ccccc1-c1ccccc1	4.53

SMILES	logP
NNC(=O)c1cccc(O)c1	-0.08
C1CCNC1	0.46
O=C(NP(=O)(N1CC1)N1CC1)c1ccc(Br)cc1	1.63
CCOCC1CO1 (stereo unspecified)	0.36
CCOP(=S)(OCC)SCn1nnc2ccccc2c1=O	3.4
O=C(O)C(c1ccc(-c2ccccc2)cc1)C(O)c1cccc(F)c1 (stereo unspecified)	3.31
NC(=O)c1cc(N2CC2)c([N+](=O)[O-])cc1[N+](=O)[O-]	-0.02
CCOc1cccnc1	1.44
CSc1ccc(C(=O)O)cc1	2.74
CC(=O)NC(C)C(=O)NC(C)C(=O)NC(C)C(=O)NC(C)(C)C (stereo unspecified)	-0.51
OCCN1CCN(CCC=C2c3ccccc3Sc3ccc(Cl)cc32)CC1	4.18
CC(=O)C(C)C	0.84
N#CCCCc1ccccc1	2.21
Cn1cc2ccc([N+](=O)[O-])cc2n1	1.76
CC1(C)O[C@@H]2C[C@H]3[C@@H]4C[C@H](F)C5=CC(=O)C=C[C@]5(C)[C@@]4(F)[C@@H](O)C[C@]3(C)[C@]2(C(=O)CO)O1	2.48
c1cncc(CN2CCCC2)c1	1.1
O=C(O)c1cccs1	1.57
O=C(NP(=O)(N1CC1)N1CC1)c1cccc(I)c1	1.91
